The text below walks through data of patent US11952432B2, “Cell-permeable stapled peptide modules for cellular delivery” (Dana-Farber Cancer Institute, Inc., priority 2018, dated 2024).

“Also recorded” adds a separate entry of the source. Bridge positions count the residues as written; N and C are the ends. Square brackets hold non-standard residues; d marks the D form. Ends that are not written are not given here. R8 = C=CCCCCCC[C@@](C)(N)C(=O)O; S5 = C=CCCC[C@](C)(N)C(=O)O; Nle = CCCC[C@H](N)C(=O)O; CycB = not defined here; βAla = NCCC(=O)O

Data set [1] relates to cells. Put plainly: Cellular uptake and intracellular distribution of TAMRA-labeled peptides by fluorescence microscopy. To be noted: for Distribution/Observations: TAMRA-labeled peptides 10 μM, approximately 1 hour incubation, fluorescence microscope. From the text: In Vitro Cell Uptake Assays: To assess cellular uptake of cargoes that are bound to cell-permeable stapled peptide modules, fluorescent tracers (e.g. TAMRA, FITC) are attached to the cell-permeable stapled peptide modules or the cargos. The cellular uptake can be tracked by, e.g., epifluorescence microscopy, fluorescence microscopy, confocal microscopy, and/or flow cytometry, at different time periods. In this manner, the rate of uptake and the intracellular distribution patterns of the stabilized peptides (e.g., CPSPs and CPSP-conjugates, other cell-permeable stapled peptides) can also be determined.
CPSP1-CPSP9 and L-CPSP (where L is an F-actin staining peptide) were labeled with a fluorescent dye, TAMRA. […] These TAMRA-labeled peptides (10 μM) were added to cell culture. After incubating the peptides with the cells for approximately 1 hour, the cells were examined by a fluorescence microscope.
Furthermore, TAMRA-labeled CPSP3 (SEQ ID NO: 14) (10 μM) and MitoTracker were both added to the cell culture.

Data set [2] concerns the target T1, MCL-1 (Homo sapiens, UniProt Q07820).
T1 construct: expressed in transfected cells
Briefly: Intracellular binding assay: colocalization with expressed MCL-1 ectopically targeted to the nuclear lamina. Format: cell-based. To be noted: colocalization at nuclear lamina with ectopically targeted MCL-1 (FIG. 5). From the text:
Intracellular binding Assays: To assess the binding of the CPSP-fusions to their respective protein target(s), cells were transfected with a GFP binding nanobody fraction coupled to nuclear lamina binding sequence (lamin B1). This nanobody binds to GFP tagged proteins and recruits them to the nuclear lamina allowing the recruitment and visualization of proteins interacting with the GFP tagged protein of interest. For example, GFP-MCL-1 can be expressed and localized to the nuclear lamina, followed by treatment of cells with TAMRA-labeled ATSP-7041/MCL-1 SAHBD fusion, followed by confocal microscopy imaging to monitor for the colocalization of TAMRA-labeled CPSP fusion at the nuclear lamina.

In data set [3] the test system is mitochondria of the treated cells. Briefly: Co-labeling of TAMRA-labeled CPSP3 with MitoTracker. Format: cell-based. To be noted: 10 μM (FIG. 2); listed as TAMRA-labeled CPSP3.
Where [4] appears, read: conjugated to CPSP3, 10 μM (FIG. 3B).

T1 sequence (Q07820 whole entry, species assumed): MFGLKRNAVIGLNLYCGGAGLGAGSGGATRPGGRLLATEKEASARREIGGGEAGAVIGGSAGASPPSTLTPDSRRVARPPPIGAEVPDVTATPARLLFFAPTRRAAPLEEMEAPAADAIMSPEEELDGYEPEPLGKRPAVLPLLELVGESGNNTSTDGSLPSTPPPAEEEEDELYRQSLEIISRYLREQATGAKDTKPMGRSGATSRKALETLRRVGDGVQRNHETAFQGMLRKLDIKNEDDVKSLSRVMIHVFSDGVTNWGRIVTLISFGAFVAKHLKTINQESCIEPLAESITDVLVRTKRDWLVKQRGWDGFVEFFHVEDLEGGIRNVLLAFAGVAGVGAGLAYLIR

“* Ba LTF8EYWAQ CycB XSAAAGGGGGK (SEQ ID NO: 61) -[GCCTAGTTTATCACCAATAAT] (SEQ ID NO: 62) [TAMRA-ATSP-7041/PNA]”: the intracellular delivery entry in data set [1] (PNA fusion (FIG. 6)) is on record as “robust intracellular delivery”. For “* Ba R K A L E T L R R V B D G V X R N H X T A F G G G G G L T F 8 E Y W A Q CycB X S A A (SEQ ID NO: 22) ([βAla]RKALETLRRV[Nle]DGV[S5]RNH[S5]TAFGGGGGLTF[R8]EYWAQ[CycB][S5]SAA; staple 16-20, 32-39 (inferred); reading uncertain; also: TAMRA label) [TAMRA-labeled MCL-1 SAHBD/ATSP-7041]”, the “intracellular engagement of MCL-1” value in data set [2] is “colocalization of the fusion to the nuclear lamina”; in data set [2] (listed as CPSP-MCL-1 SAHBD conjugate), “retains the capacity to engage its intracellular target”. Besides, the “delivery to the cytosol of treated cells” value in data set [1] (4 μM, 4 hours (FIG. 1, FIGS. 4A-B)) is on record as “efficiently delivered to the cytosol”. “* Ba X R R R X R B (SEQ ID NO: 18) [TAMRA-CPSP7]”: in data set [1], the Distribution/Observations entry is “Cytosol; Nucleus; Nucleolus; Endosomes; lysosomes”.

Consider “* Ba X R r R X (SEQ ID NO: 13) [TAMRA-CPSP2]”, for which the Distribution/Observations result in data set [1] is “Cytosol; Nucleus; Nucleolus; Endosomes; lysosomes”. Consider “* Ba X R r R X B (SEQ ID NO: 15) [TAMRA-CPSP4]”, for which the Distribution/Observations result in data set [1] is reported as “Cytosol; Nucleus; Nucleolus; Endosomes; lysosomes”. On the same count and under the same terms, to “* Ba X R r R X Naph (SEQ ID NO: 17) [TAMRA-CPSP6]” belongs “Cytosol; Nucleus; Nucleolus; Endosomes; lysosomes”; to “* Ba X R r R X R (SEQ ID NO: 12) [TAMRA-CPSP1]”, “Cytosol; Nucleus; Nucleolus; Endosomes; lysosomes”. As for “* Ba X R r R X R B (SEQ ID NO: 14) [TAMRA-CPSP3]”, the “enrichment at the mitochondria (co-labeling with MitoTracker)” value in data set [3] is on record as “Enrichment of TAMRA-labeled CPSP3 at the mitochondria”. Also, the Distribution/Observations entry in data set [1] is listed as “CPSP3 were enriched at mitochondria as well as Cytosol;; also recorded: Nucleus; Nucleolus; Endosomes; lysosomes”. As to “* Ba X R r R X R B G B R X R r R X (SEQ ID NO: 19) [TAMRA-CPSP8]”, the Distribution/Observations entry in data set [1] is on record as “Cytosol; Nucleus; Nucleolus; Endosomes; lysosomes”. Still for that read-out and setting: next, “* Ba X R r R X R B G X R r R X R B (SEQ ID NO: 20) [TAMRA-CPSP9]”: “Cytosol; Nucleus; Nucleolus; Endosomes; lysosomes”; “* Ba X R r R X R Naph (SEQ ID NO: 16) [TAMRA-CPSP5]”: “Cytosol; Nucleus; Nucleolus; Endosomes; lysosomes”. In the case of “* Ba XRrRXRB-GZG-EALKKALRRHRFLWQR RQRA (SEQ ID NO: 63) ([βAla][S5]R[dR]R[S5]R[Nle]G[βAla]GEALKKALRRHRFLWQRRQRA; not fully specified (N-terminus, bridges); bridges not given here; also: TAMRA label) [TAMRA-CPSP3/vMIA]”, the intracellular delivery result in data set [1] (10 μM, 1 h (FIG. 7, bottom panel)) is recorded as “robust intracellular delivery”. Take “Ac B G V A D L I K K F E X I A K X E K* G G G G G X R r R X R B (SEQ ID NO: 21) (Ac-[Nle]GVADLIKKFE[S5]IAK[S5]EK(TAMRA)GGGGG[S5]R[dR]R[S5]R[Nle]; not fully specified (bridges); bridges not given here) [TAMRA-L-CPSP3]”: in data set [1], the Distribution/Observations result is “Cytosol; Nucleus; Nucleolus; Endosomes; lysosomes;; also recorded: Actin filaments”. Besides, in data set [1] (setting [4]), the “delivery of the peptide into the cell” value is “robust delivery of the peptide into the cell” and the intracellular localization entry was “notable localization of L-CPSP3 to actin filaments”.
